# According to ChEMBL document CHEMBL3885861, “Open TG-GATES”:
# Species on record: Rattus norvegicus
# Assay: Open TG-GATES - Regimen: Daily Repeat
# Assay type: toxicity, organism-based, Sprague-Dawley
# Parameters: regimen Daily Repeat, gender Male, age 6 weeks
# Details: in vivo, po, 1000 mg/kg, route gavage, dose level High; for APTT / Bas / Eos / Fbg / Hb / Ht / Lym / MCH / MCHC / MCV / Mono / Neu / PT / Plat / RBC / Ret / WBC: tissue Blood; for KIDNEY_L / KIDNEY_R / KIDNEY_TOTAL: tissue Kidney; for LIVER: tissue Liver; for A/G / ALP / ALT / AST / BUN / CRE / Ca / Cl / DBIL / GLC / IP / K / LDH / Na / PL / RALB / TBIL / TC / TG / TP / gamma-GTP: tissue Plasma
compound,measurement,setting,value
CCOC(=O)CCC(=O)O[C@H]1[C@H](O[C@@H]2[C@@H](C)[C@H](O[C@H]3C[C@@](C)(OC)[C@@H](O)[C@H](C)O3)[C@@H](C)C(=O)O[C@H](CC)[C@@](C)(O)[C@H](O)[C@@H](C)C(=O)[C@H](C)C[C@@]2(C)O)O[C@H](C)C[C@@H]1N(C)C [ERYTHROMYCIN ETHYLSUCCINATE],TERMINAL_BW,"72 h, time 3 day",226.1 g
same,APTT,"72 h, time 3 day",20.6 s
same,Bas,"72 h, time 3 day",0%
same,Eos,"72 h, time 3 day",1%
same,Fbg,"72 h, time 3 day",325 mg/dL
same,Hb,"72 h, time 3 day",14.4 g/dL
same,Ht,"72 h, time 3 day",41.8%
same,Lym,"72 h, time 3 day",86.4%
same,MCH,"72 h, time 3 day",21.2 pg
same,MCHC,"72 h, time 3 day",34.4%
same,MCV,"72 h, time 3 day",61.6 fL
same,Mono,"72 h, time 3 day",3%
same,Neu,"72 h, time 3 day",8.6%
same,PT,"72 h, time 3 day",15.7 s
same,Plat,"72 h, time 3 day",125 x10_4/uL
same,RBC,"72 h, time 3 day",679.6 x10_4/ul
same,Ret,"72 h, time 3 day",3.4%
same,WBC,"72 h, time 3 day",68.6 x10_2/uL
same,KIDNEY_L,"72 h, time 3 day",1 g
same,KIDNEY_R,"72 h, time 3 day",1 g
same,KIDNEY_TOTAL,"72 h, time 3 day",2 g
same,LIVER,"72 h, time 3 day",9.5 g
same,A/G,"72 h, time 3 day",1.2
same,ALP,"72 h, time 3 day",1860.4 IU/L
same,ALT,"72 h, time 3 day",38.2 IU/L
same,AST,"72 h, time 3 day",67.4 IU/L
same,BUN,"72 h, time 3 day",17 mg/dL
same,CRE,"72 h, time 3 day",0.2 mg/dL
same,Ca,"72 h, time 3 day",10.5 mg/dL
same,Cl,"72 h, time 3 day",108.4 meq/L
same,DBIL,"72 h, time 3 day",0.002 mg/dL
same,GLC,"72 h, time 3 day",178 mg/dL
same,IP,"72 h, time 3 day",7.2 mg/dL
same,K,"72 h, time 3 day",4.2 meq/L
same,LDH,"72 h, time 3 day",198.2 IU/L
same,Na,"72 h, time 3 day",141.8 meq/L
same,PL,"72 h, time 3 day",155.6 mg/dL
same,RALB,"72 h, time 3 day",3.1 g/dL
same,TBIL,"72 h, time 3 day",0.032 mg/dL
same,TC,"72 h, time 3 day",95.2 mg/dL
same,TG,"72 h, time 3 day",58.4 mg/dL
same,TP,"72 h, time 3 day",5.7 g/dL
same,gamma-GTP,"72 h, time 3 day",1.4 IU/L
same,TERMINAL_BW,"[…], time 7 day",250.4 g
same,TERMINAL_BW,"[…], time 14 day",298.7 g
same,TERMINAL_BW,"[…], time 28 day",358.6 g
same,APTT,"[…], time 7 day",21.4 s
same,Bas,"[…], time 7 day",0%
same,Eos,"[…], time 7 day",1%
same,Fbg,"[…], time 7 day",338.6 mg/dL
same,Hb,"[…], time 7 day",13.6 g/dL
same,Ht,"[…], time 7 day",40.3%
same,Lym,"[…], time 7 day",81.6%
same,MCH,"[…], time 7 day",20.5 pg
same,MCHC,"[…], time 7 day",33.9%
same,MCV,"[…], time 7 day",60.4 fL
same,Mono,"[…], time 7 day",2.2%
same,Neu,"[…], time 7 day",14%
same,PT,"[…], time 7 day",16.6 s
same,Plat,"[…], time 7 day",112.5 x10_4/uL
same,RBC,"[…], time 7 day",666.4 x10_4/ul
same,Ret,"[…], time 7 day",3.8%
same,WBC,"[…], time 7 day",93.3 x10_2/uL
same,APTT,"[…], time 14 day",20.5 s
same,Bas,"[…], time 14 day",0%
same,Eos,"[…], time 14 day",0.8%
same,Fbg,"[…], time 14 day",327.6 mg/dL
same,Hb,"[…], time 14 day",14.2 g/dL
same,Ht,"[…], time 14 day",40.6%
same,Lym,"[…], time 14 day",83%
same,MCH,"[…], time 14 day",20.5 pg
same,MCHC,"[…], time 14 day",34.8%
same,MCV,"[…], time 14 day",59 fL
same,Mono,"[…], time 14 day",3.2%
same,Neu,"[…], time 14 day",11.4%
same,PT,"[…], time 14 day",16.2 s
same,Plat,"[…], time 14 day",107.4 x10_4/uL
same,RBC,"[…], time 14 day",690 x10_4/ul
same,Ret,"[…], time 14 day",4.6%
same,WBC,"[…], time 14 day",91.9 x10_2/uL
same,APTT,"[…], time 28 day",24.9 s
same,Bas,"[…], time 28 day",0%
same,Eos,"[…], time 28 day",1%
same,Fbg,"[…], time 28 day",340.4 mg/dL
same,Hb,"[…], time 28 day",15.2 g/dL
same,Ht,"[…], time 28 day",43.7%
same,Lym,"[…], time 28 day",82.4%
same,MCH,"[…], time 28 day",18.9 pg
same,MCHC,"[…], time 28 day",34.7%
same,MCV,"[…], time 28 day",54.3 fL
same,Mono,"[…], time 28 day",2.2%
same,Neu,"[…], time 28 day",12.6%
same,PT,"[…], time 28 day",16.3 s
same,Plat,"[…], time 28 day",102.9 x10_4/uL
same,RBC,"[…], time 28 day",804.4 x10_4/ul
same,Ret,"[…], time 28 day",2.3%
same,WBC,"[…], time 28 day",79.8 x10_2/uL
same,KIDNEY_L,"[…], time 7 day",1.1 g
same,KIDNEY_R,"[…], time 7 day",1.1 g
same,KIDNEY_TOTAL,"[…], time 7 day",2.2 g
same,KIDNEY_L,"[…], time 14 day",1.2 g
same,KIDNEY_R,"[…], time 14 day",1.2 g
same,KIDNEY_TOTAL,"[…], time 14 day",2.4 g
same,KIDNEY_L,"[…], time 28 day",1.4 g
same,KIDNEY_R,"[…], time 28 day",1.4 g
same,KIDNEY_TOTAL,"[…], time 28 day",2.8 g
same,LIVER,"[…], time 7 day",10.1 g
same,LIVER,"[…], time 14 day",12.3 g
same,LIVER,"[…], time 28 day",13.8 g
same,A/G,"[…], time 7 day",1.1
same,ALP,"[…], time 7 day",1998.2 IU/L
same,ALT,"[…], time 7 day",35.2 IU/L
same,AST,"[…], time 7 day",71.8 IU/L
same,BUN,"[…], time 7 day",18.2 mg/dL
same,CRE,"[…], time 7 day",0.2 mg/dL
same,Ca,"[…], time 7 day",10.5 mg/dL
same,Cl,"[…], time 7 day",108.2 meq/L
same,DBIL,"[…], time 7 day",0 mg/dL
same,GLC,"[…], time 7 day",188.6 mg/dL
same,IP,"[…], time 7 day",7.4 mg/dL
same,K,"[…], time 7 day",4.1 meq/L
same,LDH,"[…], time 7 day",156.6 IU/L
same,Na,"[…], time 7 day",141.8 meq/L
same,PL,"[…], time 7 day",155 mg/dL
same,RALB,"[…], time 7 day",2.8 g/dL
same,TBIL,"[…], time 7 day",0.01 mg/dL
same,TC,"[…], time 7 day",84.8 mg/dL
same,TG,"[…], time 7 day",97.6 mg/dL
same,TP,"[…], time 7 day",5.4 g/dL
same,gamma-GTP,"[…], time 7 day",1.6 IU/L
same,A/G,"[…], time 14 day",1.1
same,ALP,"[…], time 14 day",1716 IU/L
same,ALT,"[…], time 14 day",36 IU/L
same,AST,"[…], time 14 day",68.8 IU/L
same,BUN,"[…], time 14 day",19.6 mg/dL
same,CRE,"[…], time 14 day",0.2 mg/dL
same,Ca,"[…], time 14 day",10.7 mg/dL
same,Cl,"[…], time 14 day",108.6 meq/L
same,DBIL,"[…], time 14 day",0 mg/dL
same,GLC,"[…], time 14 day",187 mg/dL
same,IP,"[…], time 14 day",6.6 mg/dL
same,K,"[…], time 14 day",4.4 meq/L
same,LDH,"[…], time 14 day",161 IU/L
same,Na,"[…], time 14 day",142 meq/L
same,PL,"[…], time 14 day",163.2 mg/dL
same,RALB,"[…], time 14 day",2.9 g/dL
same,TBIL,"[…], time 14 day",0.006 mg/dL
same,TC,"[…], time 14 day",88.8 mg/dL
same,TG,"[…], time 14 day",140.8 mg/dL
same,TP,"[…], time 14 day",5.6 g/dL
same,gamma-GTP,"[…], time 14 day",1.8 IU/L
same,A/G,"[…], time 28 day",1.1
same,ALP,"[…], time 28 day",1257.4 IU/L
same,ALT,"[…], time 28 day",37 IU/L
same,AST,"[…], time 28 day",67.6 IU/L
same,BUN,"[…], time 28 day",19.2 mg/dL
same,CRE,"[…], time 28 day",0.2 mg/dL
same,Ca,"[…], time 28 day",10.4 mg/dL
same,Cl,"[…], time 28 day",108.8 meq/L
same,DBIL,"[…], time 28 day",0.002 mg/dL
same,GLC,"[…], time 28 day",173 mg/dL
same,IP,"[…], time 28 day",6.9 mg/dL
same,K,"[…], time 28 day",4.1 meq/L
same,LDH,"[…], time 28 day",132.8 IU/L
same,Na,"[…], time 28 day",141.8 meq/L
same,PL,"[…], time 28 day",138 mg/dL
same,RALB,"[…], time 28 day",3 g/dL
same,TBIL,"[…], time 28 day",0.012 mg/dL
same,TC,"[…], time 28 day",75.2 mg/dL
same,TG,"[…], time 28 day",99.6 mg/dL
same,TP,"[…], time 28 day",5.7 g/dL
same,gamma-GTP,"[…], time 28 day",1.6 IU/L
